This passage reports IC50 results from USRE44987E1, “Bromo-phenyl substituted thiazolyl dihydropyrimidines” (Sunshine Lake Pharma Co., Ltd., priority 2007, dated 2014).

Assay [1] has as its system hepatitis B virus. The experiment in a line: Antiviral action on hepatitis B virus in HepG2.2.15 cells (HBV DNA dot-blot hybridization). The assay is classed as cell-based. To be noted: 50% reduction of intra- or extracellular hepatitis B-specific band. As to the method: The antiviral action of the compounds of the invention on hepatitis B virus is investigated by methods based on those described by M. A. Sells et al., Proc. Natl. Acad. Sci., 84, 1005-1009 (1987) and B. E. Korba et al., Antiviral Research 19, 55-70 (1992).
The antiviral tests are carried out in 96-well microtiter plates. The first vertical row of the plate receives only growth medium and HepG2.2.15 cells. It serves as virus control.
Stock solutions of the test compounds (50 mM) are initially dissolved in DMSO, and further dilutions are prepared in the HepG2.2.15 growth medium. The compounds according to the invention are usually pipetted in a test concentration of 100 μM (1st test concentration) in each case into the second vertical test row of the microtiter plate and subsequently diluted in twofold steps […] in growth medium plus 2% by weight of fetal calf serum (volume 25 μl)
Each well of the microtiter plate then contains 225 μl of HepG2.2.15 cell suspension (5×10^4 cells/ml) in growth medium plus 2% by weight of fetal calf serum. The test mixture is incubated at 37° C. and 5% CO2 (v/v) for 4 days.
The supernatant is then aspirated off and discarded, and the wells receive 225 μl of freshly prepared growth medium. The compounds according to the invention are each added anew as 10-fold concentrated solution in a volume of 25 μl. The mixtures are incubated for a further 4 days
The supernatant and/or cells are then harvested and sucked by means of a vacuum onto 96-well dot-blot chambers covered with a nylon membrane (in accordance with the manufacturer's information).
After the supernatants or lysed cells is transferred to the nylon membrane of the blot apparatus (see above), the intra- or extracellular supernatants of the HepG2.2.15 cells are denatured (1.5 M NaCl/0.5 N NaOH), neutralized (3 M NaCl/0.5M Tris HCl, pH 7.5) and washed (2×SSC). The DNA is then baked onto the membrane by incubating the filters at 120° C. for 2-4 hours.
Detection of the viral DNA from the treated HepG2.2.15 cells on the nylon filters is usually carried out with nonradioactive, digoxigenin-labeled hepatitis B-specific DNA probes, each of which is labeled with digoxigenin, purified and employed for the hybridization in accordance with the manufacturer's information.
The prehybridization and hybridization take place in 5×SSC, 1×blocking reagent, 0.1% by weight N-lauroylsarcosine, 0.02% by weight SDS and 100 μg of herring sperm DNA. The prehybridization takes place at 60° C. for 30 minutes, and the specific hybridization takes place with 20 to 40 ng/ml of the digoxigenized, denatured HBV-specific DNA (14 hours, 60° C.). The filters are then washed.
The immunological detection of the digoxigenin-labeled DNA took place in accordance with the manufacturer's information: […]

Assay [2] relates to hepatitis B virus. To be noted: examples of U.S. Pat. No. 7,074,784, values as described in that patent; cited from earlier work.
[3] abbreviates: Hepatitis B virus, HepG2.2.15, HepG2.2.15 cells.

As usually defined, the IC50 is the concentration that gives 50% inhibition.

Read-outs that look alike come from different tables or passages of the source.

With `CCOC(=O)C1=C(CN2CCOCC2)NC(c2nccs2)=NC1c1ccc(F)cc1Br` (single isomer, unassigned; (-)) [(−)-5], in assay [1] (HepG2.2.15 cells), the IC50 came out at 0.1 nM.
Still for that read-out and setting: with `COC(=O)C1=C(CN2CCOCC2)NC(c2nccs2)=NC1c1ccc(F)cc1Br` (single isomer, unassigned; (-)) [(−)-6] the figure was 0.2 nM.
For `COC(=O)C1=C(CN2CCOCC2)NC(c2nccs2)=NC1c1ccc(F)cc1Br` (centres unmarked) [Example 6, Methyl 4-(2-bromo-4-fluorophenyl)-2-(thiazol-2-yl)-6-(4-morpholinylmethy)-1,4-dihydropyrimidine-5-carboxylic ester], half-maximal inhibition in assay [1] (setting [3]) (IC50) required 0.3 nM.
Take `CCOC(=O)C1=C(CN2CCOCC2)NC(c2nccs2)=NC1c1ccc(F)cc1Br` (centres unmarked) [Example 5, Ethyl 4-(2-bromo-4-fluorophenyl)-2-(thiazol-2-yl)-6-(4-morpholinylmethy)-1,4-dihydropyrimidine-5-carboxylic ester]: the IC50 in assay [1] (setting [3]) was 0.2 nM; in assay [2], 2 to 4 nM.
